{
  "source": "patent US20260041629A1",
  "about": "“Methods and Systems to Reduce Injury in Treated Tissues” (MileHigh Repro Solutions, LLC, priority 2022, published 2026)",
  "key": {"boar sperm": {"tested_on": "boar sperm", "experiment": "Experiment 2: compatibility with sperm in vitro (motility by computer assisted sperm analyzer)", "type": "cell-based", "conditions": "exposure 3 hours, 37° C", "experimental": "A successful cervical softening agent should be safe for a mammal's tissues and also for sperm used to inseminate the mammal. It was anticipated that the cervical tract and the AI rod will each retain a residue of the solution treatment which may then combine with the semen inside the cervix or uterus. Therefore, experiments were performed using sperm samples from boars to evaluate the toxicity of each proposed treatment and blends.\nExtended boar sperm doses (28×10^6/ml; 1 ml) were incubated with each of the miscible solutions at 3 concentrations, 0.1 μL, 0.5 μL, or 1 μL per 1 mL extended sperm, then the sperm with the solution were incubated for 3 hours at 37° C. Motility characteristics were measured via computer assisted sperm analyzer. This experiment was replicated 4 times."}, "ewe cervices": {"tested_on": "ewe cervices", "experiment": "Experiment 1: in vitro efficacy of solution, AI rod passage through excised cervical tracts", "conditions": "¼ cc rod, tracts treated 1 hour, * = statistically significant improvement over control", "experimental": "Ewe and bison cervical tracts were obtained to assess local responses in living tissue thereby modeling in vivo response to a solution. Tracts were treated for 1 hour with the respective solution using an absorbent matrix applicator, then ¼ cc AI rods were passed through the cervix, mimicking trans-cervical artificial insemination. A total of […] tracts were utilized with each of 13 treatments tested in 11 replicates. The estimated number of rings passed was recorded. Post-treatment tracts were dissected, then length and cervical anatomy were recorded, and relationships between cervical structure, ring number and position were and analyzed. Ring passage data was transformed into a percentage of rings passed to normalize the data and to allow comparison across an undefined variety of tissues, breeds, ages, and other etiological differences. A paired T-test indicated trends in increased passage of AI rod (P=0.064) when treating the cervix versus control."}},
  "data": [
    {"smiles": "CCCC[N+]1(C)[C@@H]2C[C@@H](OC(=O)[C@H](CO)c3ccccc3)C[C@H]1[C@@H]1O[C@@H]12", "note": "(stereo partly shown) [Extract F, hyoscine butylbromide]", "values": [
      {"measurement": "Sperm motility, motile percentage of the total number of spermatozoa", "setting": "boar sperm; dose 0.1 μL in 1 mL sperm", "result": 90.7, "unit": "%"},
      {"measurement": "Sperm motility, motile percentage of the total number of spermatozoa", "setting": "boar sperm; dose 0.5 μL in 1 mL sperm", "result": 93.3, "unit": "%"},
      {"measurement": "Sperm motility, motile percentage of the total number of spermatozoa", "setting": "boar sperm; dose 1 μL in 1 mL sperm", "result": 91.8, "unit": "%"},
      {"measurement": "Avg. % Cervical rings passed", "setting": "ewe cervices", "result": "50.02* %"}
    ]}
  ]
}
